# How the values were obtained:
# [1] = target: T1, Protein deacetylase HDAC6 (Homo sapiens, UniProt Q9UBN7); test: Inhibition of recombinant full-length human HDAC6 using FAM-RHKK(Ac)-NH2 as substrate by electrophoretic mobility shift assay
# T1 sequence (Q9UBN7 whole entry): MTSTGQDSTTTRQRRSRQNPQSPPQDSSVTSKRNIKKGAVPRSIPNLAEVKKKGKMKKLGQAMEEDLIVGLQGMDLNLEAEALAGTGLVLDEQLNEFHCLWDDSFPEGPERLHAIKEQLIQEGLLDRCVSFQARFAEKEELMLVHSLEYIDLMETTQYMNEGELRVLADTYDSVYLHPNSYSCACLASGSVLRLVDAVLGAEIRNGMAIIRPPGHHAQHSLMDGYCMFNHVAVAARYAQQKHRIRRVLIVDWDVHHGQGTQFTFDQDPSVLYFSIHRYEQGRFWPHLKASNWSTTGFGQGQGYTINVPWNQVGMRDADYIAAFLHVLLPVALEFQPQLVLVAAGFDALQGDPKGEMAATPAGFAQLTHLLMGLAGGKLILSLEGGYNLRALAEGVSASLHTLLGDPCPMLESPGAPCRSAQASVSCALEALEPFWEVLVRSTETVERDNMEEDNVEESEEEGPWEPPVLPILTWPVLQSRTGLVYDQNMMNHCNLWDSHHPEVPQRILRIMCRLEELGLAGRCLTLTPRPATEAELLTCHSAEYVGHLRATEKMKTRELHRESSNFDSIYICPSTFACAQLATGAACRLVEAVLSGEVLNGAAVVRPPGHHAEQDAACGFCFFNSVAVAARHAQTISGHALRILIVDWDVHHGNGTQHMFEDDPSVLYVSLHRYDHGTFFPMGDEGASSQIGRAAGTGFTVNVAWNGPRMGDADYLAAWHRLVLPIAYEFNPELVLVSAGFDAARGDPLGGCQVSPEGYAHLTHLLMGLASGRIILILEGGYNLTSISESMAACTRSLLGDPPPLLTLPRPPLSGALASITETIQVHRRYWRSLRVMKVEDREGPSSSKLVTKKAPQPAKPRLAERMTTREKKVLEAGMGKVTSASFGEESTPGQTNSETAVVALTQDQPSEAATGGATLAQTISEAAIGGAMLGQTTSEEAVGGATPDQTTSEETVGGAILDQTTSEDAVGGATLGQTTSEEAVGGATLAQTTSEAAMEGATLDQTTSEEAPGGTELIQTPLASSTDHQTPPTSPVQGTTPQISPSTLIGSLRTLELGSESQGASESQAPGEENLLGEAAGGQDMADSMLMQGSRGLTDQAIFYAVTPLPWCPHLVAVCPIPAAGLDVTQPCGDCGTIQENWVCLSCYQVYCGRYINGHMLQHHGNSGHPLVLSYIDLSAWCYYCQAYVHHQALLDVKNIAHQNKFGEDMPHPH
# Histone deacetylase 11 = target: T2, Histone deacetylase 11 (Homo sapiens, UniProt Q96DB2); test: Inhibition of recombinant full-length human HDAC11 using FAM-RHKK (trifluor-Ac)-NH2 as substrate by electrophoretic mobility shift assay
# T2 sequence (Q96DB2 whole entry): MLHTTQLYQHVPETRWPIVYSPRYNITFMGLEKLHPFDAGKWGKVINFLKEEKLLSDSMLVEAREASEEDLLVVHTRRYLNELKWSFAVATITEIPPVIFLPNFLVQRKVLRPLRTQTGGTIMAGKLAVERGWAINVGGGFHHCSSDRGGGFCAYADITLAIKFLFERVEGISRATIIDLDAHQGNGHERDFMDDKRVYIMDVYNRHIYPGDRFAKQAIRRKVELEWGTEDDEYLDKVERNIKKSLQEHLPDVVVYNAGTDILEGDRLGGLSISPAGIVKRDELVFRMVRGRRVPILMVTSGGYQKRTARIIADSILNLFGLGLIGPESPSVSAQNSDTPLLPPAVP
# Histone deacetylase 1 = Histone deacetylase 1 (Homo sapiens, UniProt Q13547); test: Inhibition of recombinant full-length human HDAC1 using FITC-H3K27(Ac)-NH2 as substrate by electrophoretic mobility shift assay
# Histone deacetylase 9 = Histone deacetylase 9 (Homo sapiens, UniProt Q9UKV0); test: Inhibition of recombinant full-length human HDAC9 using FAM-RHKK (trifluor-Ac)-NH2 as substrate by electrophoretic mobility shift assay
# Histone deacetylase 5 = Histone deacetylase 5 (Homo sapiens, UniProt Q9UQL6); test: Inhibition of recombinant full-length human HDAC5 using FAM-RHKK (trifluor-Ac)-NH2 as substrate by electrophoretic mobility shift assay
# Histone deacetylase 2 = Histone deacetylase 2 (Homo sapiens, UniProt Q92769); test: Inhibition of recombinant full-length human HDAC2 using FITC-H3K27(Ac)-NH2 as substrate by electrophoretic mobility shift assay
# Histone deacetylase 8 = target: T3, Histone deacetylase 8 (Homo sapiens, UniProt Q9BY41); test: Inhibition of recombinant full-length human HDAC8 using FAM-RHKK(Ac)-NH2 as substrate by electrophoretic mobility shift assay
# T3 sequence (Q9BY41 whole entry): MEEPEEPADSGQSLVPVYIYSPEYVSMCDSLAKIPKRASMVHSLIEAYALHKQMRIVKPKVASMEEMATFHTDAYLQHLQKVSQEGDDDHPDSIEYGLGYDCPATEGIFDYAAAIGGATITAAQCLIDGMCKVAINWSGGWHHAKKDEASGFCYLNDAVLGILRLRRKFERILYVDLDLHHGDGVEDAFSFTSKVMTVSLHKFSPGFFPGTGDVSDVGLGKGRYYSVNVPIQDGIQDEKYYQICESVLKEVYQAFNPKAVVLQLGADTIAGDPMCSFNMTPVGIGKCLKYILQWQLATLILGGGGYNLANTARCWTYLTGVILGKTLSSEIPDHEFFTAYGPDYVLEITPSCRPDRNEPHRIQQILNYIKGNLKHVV
# [2] = target: T4, Polyamine deacetylase HDAC10 (Homo sapiens, UniProt Q969S8); test: Inhibition of recombinant full-length human HDAC10 using FITC-H3K27(Ac)-NH2 as substrate by electrophoretic mobility shift assay
# T4 sequence (Q969S8 whole entry): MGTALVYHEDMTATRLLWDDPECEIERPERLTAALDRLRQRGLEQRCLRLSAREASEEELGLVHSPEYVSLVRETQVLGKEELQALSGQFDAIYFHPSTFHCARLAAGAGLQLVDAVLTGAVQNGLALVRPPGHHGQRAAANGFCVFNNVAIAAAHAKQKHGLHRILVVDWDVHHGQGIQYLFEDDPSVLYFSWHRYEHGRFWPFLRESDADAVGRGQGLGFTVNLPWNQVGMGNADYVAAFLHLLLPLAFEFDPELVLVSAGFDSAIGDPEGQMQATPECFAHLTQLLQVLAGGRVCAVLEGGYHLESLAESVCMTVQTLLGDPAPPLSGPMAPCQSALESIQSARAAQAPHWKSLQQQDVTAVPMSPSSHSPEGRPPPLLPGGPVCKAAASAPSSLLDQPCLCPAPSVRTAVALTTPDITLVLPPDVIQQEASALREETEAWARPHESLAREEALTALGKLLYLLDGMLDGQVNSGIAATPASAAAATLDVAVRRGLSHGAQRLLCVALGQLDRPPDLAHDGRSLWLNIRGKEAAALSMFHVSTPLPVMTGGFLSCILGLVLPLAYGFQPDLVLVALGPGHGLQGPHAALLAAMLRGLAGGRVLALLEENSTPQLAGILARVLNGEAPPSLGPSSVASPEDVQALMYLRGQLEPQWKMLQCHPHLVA
# Histone deacetylase 4 = Histone deacetylase 4 (Homo sapiens, UniProt P56524); test: Inhibition of recombinant full-length human HDAC4 using FAM-RHKK (trifluor-Ac)-NH2 as substrate by electrophoretic mobility shift assay
# Histone deacetylase 3 = Histone deacetylase 3 (Homo sapiens, UniProt O15379)
# Histone deacetylase 7 = target: T5, Histone deacetylase 7 (Homo sapiens, UniProt Q8WUI4); test: Inhibition of recombinant full-length human HDAC7 using FAM-RHKK (trifluor-Ac)-NH2 as substrate by electrophoretic mobility shift assay
# T5 sequence (Q8WUI4 whole entry): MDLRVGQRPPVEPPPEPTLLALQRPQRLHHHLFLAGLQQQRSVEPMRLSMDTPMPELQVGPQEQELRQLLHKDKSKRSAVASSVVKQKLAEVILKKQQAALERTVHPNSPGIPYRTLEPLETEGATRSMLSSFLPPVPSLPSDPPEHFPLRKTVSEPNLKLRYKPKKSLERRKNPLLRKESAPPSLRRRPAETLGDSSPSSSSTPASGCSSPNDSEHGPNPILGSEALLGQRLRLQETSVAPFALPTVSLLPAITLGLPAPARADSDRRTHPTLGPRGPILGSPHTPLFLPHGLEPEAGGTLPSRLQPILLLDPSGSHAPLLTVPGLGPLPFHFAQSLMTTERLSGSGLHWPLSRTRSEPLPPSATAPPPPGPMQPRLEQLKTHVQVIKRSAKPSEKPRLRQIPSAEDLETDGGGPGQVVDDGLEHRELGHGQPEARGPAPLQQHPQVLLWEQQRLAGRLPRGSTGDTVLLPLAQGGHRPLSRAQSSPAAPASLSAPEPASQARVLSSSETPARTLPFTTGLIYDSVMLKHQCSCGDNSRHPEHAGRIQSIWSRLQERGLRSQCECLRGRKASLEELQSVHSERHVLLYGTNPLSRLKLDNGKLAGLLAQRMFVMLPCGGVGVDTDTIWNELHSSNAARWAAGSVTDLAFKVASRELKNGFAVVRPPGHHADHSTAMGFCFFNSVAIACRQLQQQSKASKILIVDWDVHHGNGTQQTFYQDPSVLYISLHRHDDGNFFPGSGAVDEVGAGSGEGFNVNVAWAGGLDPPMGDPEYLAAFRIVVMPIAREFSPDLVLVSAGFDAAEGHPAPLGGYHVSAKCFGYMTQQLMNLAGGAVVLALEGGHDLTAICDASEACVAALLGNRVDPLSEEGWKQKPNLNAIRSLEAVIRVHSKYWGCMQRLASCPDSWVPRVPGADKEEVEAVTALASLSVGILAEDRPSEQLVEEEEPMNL
# Chain of Histone deacetylase 2 (Q92769 whole entry): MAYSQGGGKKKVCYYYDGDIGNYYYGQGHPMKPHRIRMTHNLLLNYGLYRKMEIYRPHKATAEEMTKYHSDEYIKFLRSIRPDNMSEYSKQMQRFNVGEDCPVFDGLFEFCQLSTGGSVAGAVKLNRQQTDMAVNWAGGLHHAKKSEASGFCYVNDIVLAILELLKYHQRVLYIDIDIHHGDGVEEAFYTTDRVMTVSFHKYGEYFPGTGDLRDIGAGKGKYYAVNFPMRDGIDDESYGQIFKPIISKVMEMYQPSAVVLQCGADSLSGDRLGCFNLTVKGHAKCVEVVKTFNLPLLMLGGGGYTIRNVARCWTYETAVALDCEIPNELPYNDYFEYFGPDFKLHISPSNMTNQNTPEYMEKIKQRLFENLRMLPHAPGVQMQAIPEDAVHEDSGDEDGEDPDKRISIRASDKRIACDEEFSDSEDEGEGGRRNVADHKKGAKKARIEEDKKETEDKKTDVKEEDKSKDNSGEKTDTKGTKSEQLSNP
# Chain of Histone deacetylase 5 (Q9UQL6 whole entry): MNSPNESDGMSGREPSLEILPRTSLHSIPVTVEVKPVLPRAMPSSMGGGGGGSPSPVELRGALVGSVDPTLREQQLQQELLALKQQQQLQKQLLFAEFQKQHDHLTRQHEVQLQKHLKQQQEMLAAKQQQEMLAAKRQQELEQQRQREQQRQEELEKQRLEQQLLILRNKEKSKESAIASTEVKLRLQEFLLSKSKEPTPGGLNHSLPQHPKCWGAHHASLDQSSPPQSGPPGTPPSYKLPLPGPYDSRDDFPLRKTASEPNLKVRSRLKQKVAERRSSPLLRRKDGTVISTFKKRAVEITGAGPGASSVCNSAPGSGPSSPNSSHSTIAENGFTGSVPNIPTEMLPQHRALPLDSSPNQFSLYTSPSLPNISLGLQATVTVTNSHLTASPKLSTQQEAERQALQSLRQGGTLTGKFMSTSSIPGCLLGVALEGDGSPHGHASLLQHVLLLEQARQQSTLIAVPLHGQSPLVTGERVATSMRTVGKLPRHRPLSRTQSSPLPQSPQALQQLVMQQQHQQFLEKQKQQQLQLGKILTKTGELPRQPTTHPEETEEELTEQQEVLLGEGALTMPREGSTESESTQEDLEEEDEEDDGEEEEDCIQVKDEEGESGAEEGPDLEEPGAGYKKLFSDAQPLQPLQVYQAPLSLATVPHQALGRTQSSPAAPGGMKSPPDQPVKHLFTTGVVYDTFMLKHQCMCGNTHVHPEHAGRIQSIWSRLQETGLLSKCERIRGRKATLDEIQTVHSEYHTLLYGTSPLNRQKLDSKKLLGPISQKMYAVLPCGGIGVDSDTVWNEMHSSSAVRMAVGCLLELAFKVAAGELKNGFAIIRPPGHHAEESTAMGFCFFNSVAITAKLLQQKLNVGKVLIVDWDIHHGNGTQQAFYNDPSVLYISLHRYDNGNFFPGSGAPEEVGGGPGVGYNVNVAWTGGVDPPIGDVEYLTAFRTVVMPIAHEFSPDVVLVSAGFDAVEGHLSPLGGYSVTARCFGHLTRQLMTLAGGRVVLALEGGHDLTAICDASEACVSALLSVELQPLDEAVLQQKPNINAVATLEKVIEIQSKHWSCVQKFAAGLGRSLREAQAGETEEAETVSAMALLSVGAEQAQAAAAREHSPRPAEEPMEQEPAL
# Chain of Histone deacetylase 3 (O15379 whole entry): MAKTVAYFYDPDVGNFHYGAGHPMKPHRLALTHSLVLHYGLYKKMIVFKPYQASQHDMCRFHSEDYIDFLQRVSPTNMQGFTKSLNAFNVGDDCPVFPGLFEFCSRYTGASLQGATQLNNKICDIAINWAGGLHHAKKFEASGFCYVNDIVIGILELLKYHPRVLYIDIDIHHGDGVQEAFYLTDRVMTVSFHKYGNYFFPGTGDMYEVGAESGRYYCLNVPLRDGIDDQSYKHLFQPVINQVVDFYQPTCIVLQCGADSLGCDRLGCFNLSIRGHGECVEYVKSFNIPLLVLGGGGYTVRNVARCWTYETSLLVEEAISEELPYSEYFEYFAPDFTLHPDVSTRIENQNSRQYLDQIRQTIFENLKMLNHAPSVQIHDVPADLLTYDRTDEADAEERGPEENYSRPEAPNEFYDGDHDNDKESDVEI
# Chain of Histone deacetylase 1 (Q13547 whole entry): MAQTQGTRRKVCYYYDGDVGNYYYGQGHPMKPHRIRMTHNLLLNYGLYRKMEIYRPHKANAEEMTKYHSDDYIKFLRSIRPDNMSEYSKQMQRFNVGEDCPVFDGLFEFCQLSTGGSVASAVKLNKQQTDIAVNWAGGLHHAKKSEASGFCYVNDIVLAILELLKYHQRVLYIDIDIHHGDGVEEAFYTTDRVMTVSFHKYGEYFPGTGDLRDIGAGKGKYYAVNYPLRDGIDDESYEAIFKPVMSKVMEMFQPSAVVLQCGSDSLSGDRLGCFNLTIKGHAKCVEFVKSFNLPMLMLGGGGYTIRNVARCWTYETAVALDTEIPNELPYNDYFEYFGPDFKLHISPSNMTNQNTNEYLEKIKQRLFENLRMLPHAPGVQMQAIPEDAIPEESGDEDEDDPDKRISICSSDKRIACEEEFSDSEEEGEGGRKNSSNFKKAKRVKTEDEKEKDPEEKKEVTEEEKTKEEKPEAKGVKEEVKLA
# Chain of Histone deacetylase 9 (Q9UKV0 whole entry): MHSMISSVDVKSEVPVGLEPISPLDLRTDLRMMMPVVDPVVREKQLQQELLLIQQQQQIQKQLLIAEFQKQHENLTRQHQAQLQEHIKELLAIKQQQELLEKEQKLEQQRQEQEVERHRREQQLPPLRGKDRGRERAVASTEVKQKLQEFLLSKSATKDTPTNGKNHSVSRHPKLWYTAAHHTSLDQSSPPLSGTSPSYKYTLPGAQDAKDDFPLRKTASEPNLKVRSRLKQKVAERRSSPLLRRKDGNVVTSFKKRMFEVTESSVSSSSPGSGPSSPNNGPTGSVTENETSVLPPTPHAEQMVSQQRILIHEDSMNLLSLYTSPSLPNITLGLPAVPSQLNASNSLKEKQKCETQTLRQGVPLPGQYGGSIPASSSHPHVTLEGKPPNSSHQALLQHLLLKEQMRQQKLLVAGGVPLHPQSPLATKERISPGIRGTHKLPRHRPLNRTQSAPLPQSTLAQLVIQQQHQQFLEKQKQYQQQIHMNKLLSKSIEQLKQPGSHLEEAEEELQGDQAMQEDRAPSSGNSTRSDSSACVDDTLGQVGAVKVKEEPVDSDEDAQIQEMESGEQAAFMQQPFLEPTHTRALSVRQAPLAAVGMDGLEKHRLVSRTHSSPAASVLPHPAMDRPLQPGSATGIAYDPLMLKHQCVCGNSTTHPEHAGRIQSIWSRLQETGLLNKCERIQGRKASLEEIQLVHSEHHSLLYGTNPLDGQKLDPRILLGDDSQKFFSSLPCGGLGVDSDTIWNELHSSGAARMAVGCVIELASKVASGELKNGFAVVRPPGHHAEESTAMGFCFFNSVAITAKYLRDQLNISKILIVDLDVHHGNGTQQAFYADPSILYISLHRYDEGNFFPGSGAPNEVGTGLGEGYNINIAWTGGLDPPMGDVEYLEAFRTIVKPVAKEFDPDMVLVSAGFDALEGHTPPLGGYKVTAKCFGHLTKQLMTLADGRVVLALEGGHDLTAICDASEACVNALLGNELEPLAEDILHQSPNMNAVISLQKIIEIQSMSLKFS
# Chain of Histone deacetylase 4 (P56524 whole entry): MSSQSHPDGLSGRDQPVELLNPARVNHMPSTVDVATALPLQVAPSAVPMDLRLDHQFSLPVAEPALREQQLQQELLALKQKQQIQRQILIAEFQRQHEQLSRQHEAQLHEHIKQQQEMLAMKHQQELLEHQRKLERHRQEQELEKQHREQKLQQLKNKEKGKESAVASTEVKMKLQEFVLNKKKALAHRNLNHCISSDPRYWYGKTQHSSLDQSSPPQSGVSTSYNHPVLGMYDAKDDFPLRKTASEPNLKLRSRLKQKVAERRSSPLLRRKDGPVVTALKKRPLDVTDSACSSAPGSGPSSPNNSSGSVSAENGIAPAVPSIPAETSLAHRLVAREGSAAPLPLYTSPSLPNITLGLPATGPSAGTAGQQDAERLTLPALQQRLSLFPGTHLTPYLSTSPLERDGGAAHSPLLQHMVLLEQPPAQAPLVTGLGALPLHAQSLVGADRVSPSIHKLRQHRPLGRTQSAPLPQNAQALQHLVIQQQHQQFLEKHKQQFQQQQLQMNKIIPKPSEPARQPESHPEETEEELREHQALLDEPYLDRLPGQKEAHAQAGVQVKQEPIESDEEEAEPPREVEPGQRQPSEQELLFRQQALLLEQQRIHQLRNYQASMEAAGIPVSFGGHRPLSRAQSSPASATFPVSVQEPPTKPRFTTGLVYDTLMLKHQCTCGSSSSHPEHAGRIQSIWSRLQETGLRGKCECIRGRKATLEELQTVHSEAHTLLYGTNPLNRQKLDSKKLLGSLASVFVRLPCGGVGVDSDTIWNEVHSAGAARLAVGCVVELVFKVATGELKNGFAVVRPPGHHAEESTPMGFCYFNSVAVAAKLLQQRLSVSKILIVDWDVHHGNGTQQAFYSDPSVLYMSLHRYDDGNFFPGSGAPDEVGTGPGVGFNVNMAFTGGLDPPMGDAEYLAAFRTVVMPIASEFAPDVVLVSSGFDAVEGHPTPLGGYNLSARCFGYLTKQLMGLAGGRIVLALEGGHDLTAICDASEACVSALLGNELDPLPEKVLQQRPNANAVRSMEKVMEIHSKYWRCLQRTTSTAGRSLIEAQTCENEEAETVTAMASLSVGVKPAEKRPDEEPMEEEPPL
Compound,IC50 [1] [µM],IC50 (Histone deacetylase 11) [µM],IC50 (Histone deacetylase 1) [µM],IC50 (Histone deacetylase 9) [µM],IC50 (Histone deacetylase 5) [µM],IC50 (Histone deacetylase 2) [µM],IC50 (Histone deacetylase 8) [µM],IC50 [2] [µM],IC50 (Histone deacetylase 4) [µM],IC50 (Histone deacetylase 3) [µM],IC50 (Histone deacetylase 7) [µM]
COc1cc(CN(C)CCC23CC4CC(CC(C4)C2)C3)ccc1C(=O)NO,> 10,4.21,–,–,–,–,–,–,–,–,–
O=C(NO)c1ccc(Cn2ccc3cc(C(=O)NCC45C[C@H]6C[C@@H](C4)C[C@@H](C5)C6)ccc32)cc1,–,0.48,0.88,5.25,> 10,1.9,1.95,> 10,1.09,0.98,–
COc1cc(C(=O)NCC23CC4CC(CC(C4)C2)C3)ccc1C(=O)NO,–,8.89,–,–,–,–,–,–,–,–,–
O=C(NCC12C[C@H]3C[C@@H](C1)C[C@@H](C2)C3)c1ccc2c(ccn2Cc2ccc(C(=O)NO)c(O)c2)c1,–,–,> 10,–,7.25,> 10,–,> 10,–,8.12,–
CCCNNC(=O)c1ccc(Cn2ccc3cc(C(=O)NCC45C[C@H]6C[C@@H](C4)C[C@@H](C5)C6)ccc32)cc1,–,2.61,–,–,–,–,–,–,–,–,–
O=C(NO)c1ccc(Cn2ccc3cc(C(=O)NCC45C[C@H]6C[C@@H](C4)C[C@@H](C5)C6)ccc32)c(F)c1,0.008,–,0.19,2.09,> 10,1.02,–,0.23,1.12,0.69,–
COc1cc(CN(C)CC23CC4CC(CC(C4)C2)C3)ccc1C(=O)NO,> 10,> 10,–,–,–,–,–,–,–,–,–
O=C(NCC12C[C@H]3C[C@@H](C1)C[C@@H](C2)C3)c1ccc2c(ccn2Cc2ccc(C(=O)NO)c(Br)c2)c1,–,–,7.32,9.31,–,> 10,–,8.97,–,2.23,–

# More lines, in order of falling IC50 (Histone deacetylase 11), values ahead:
IC50 [1] [µM],IC50 (Histone deacetylase 11) [µM],IC50 (Histone deacetylase 1) [µM],IC50 (Histone deacetylase 9) [µM],IC50 (Histone deacetylase 5) [µM],IC50 (Histone deacetylase 2) [µM],IC50 (Histone deacetylase 8) [µM],IC50 [2] [µM],IC50 (Histone deacetylase 4) [µM],IC50 (Histone deacetylase 3) [µM],IC50 (Histone deacetylase 7) [µM],Compound
–,0.35,> 10,–,–,> 10,2.06,> 10,> 10,> 10,–,Cc1cc(Cn2ccc3cc(C(=O)NCC45C[C@H]6C[C@@H](C4)C[C@@H](C5)C6)ccc32)ccc1C(=O)NO
–,0.25,> 10,> 10,–,> 10,> 10,> 10,> 10,–,4.03,CCOc1cc(Cn2ccc3cc(C(=O)NCC45C[C@H]6C[C@@H](C4)C[C@@H](C5)C6)ccc32)ccc1C(=O)NO
0.22,0.14,> 10,4.53,–,> 10,0.41,9.05,–,–,0.57,O=C(NCC12C[C@H]3C[C@@H](C1)C[C@@H](C2)C3)c1ccc2c(ccn2Cc2ccc(C(=O)NO)c(Cl)c2)c1
0.64,0.093,> 10,2.84,1.88,> 10,0.16,> 10,3.04,1.33,–,COc1cc(C(=O)NO)ccc1Cn1ccc2cc(C(=O)NCC34C[C@H]5C[C@@H](C3)C[C@@H](C4)C5)ccc21
–,0.079,–,–,–,3.4,–,0.6,–,0.18,–,O=C(NCC12C[C@H]3C[C@@H](C1)C[C@@H](C2)C3)c1ccc2c(ccn2Cc2ccc(C(=O)NO)c(F)c2)c1
